Data published in patent US9567301B2, “Pyrrol-1-yl benzoic acid derivatives useful as myc inhibitors” (Whitehead Institute for Biomedical Research, priority 2012, dated 2017).
Entries after “also recorded” stand apart in the source; their conditions may differ. Where two headings read alike, the source gives them in different places.

Key:
H2171 cells = assay: Cell viability assay (ATPlite), H2171; assay type: cell-based, human; settings: for EC50: cell viability, three days, ATPlite, NA: inactive under assay conditions
Outline: (§1)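 Cells seeded at 60,000 cells/mL and dosed immediately by pin transfer in 10-point quadruplicate dose response from DMSO stocks. After three days at 37 °C, viability was read by ATPlite luminescence after 15 min at room temperature.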

MM1S cells = assay: Cell viability assay (ATPlite), MM1S; assay type: cell-based, human; settings: for EC50: cell viability, three days, ATPlite, NA: inactive under assay conditions
Outline: as §1

Jurkat cells = assay: Cell viability assay (ATPlite), Jurkat; assay type: cell-based, human; settings: Homo sapiens, Jurkat; class symbols; NA: not active under assay conditions
Method: This assay was used for the H2171 and MM1S cell data shown in Table 2, and for the Jurkat (an immortalized line of human T lymphocyte cells), Ly1 (OCI-Ly1 human non-Hodgkin lymphoma cell line), Ly4 (OCI-Ly4 human non-Hodgkin lymphoma cell line), H2172 (NCI-H2172 human non-small cell lung cancer cell line), and CA-46 (a human Burkitt's lymphoma cell line) cell data shown in Table 3 and FIG. 12. Cells were counted and adjusted to 60,000 cells/mL. Using a Biotek EL406, 50 μL of cells are media were distributed into 384 well white plates from Thermo. Immediately after plating, compound in DMSO was distributed to plates. For large plate sets, cells were returned to 37° C. incubator while not in use.
Compounds were added to plates using a 100 nL 384 well pin transfer manifold on a Janus workstation. Stocks were arrayed in 10 point quadruplicate dose response in DMSO stock in 384 well Greiner compound plates. After addition of compound, plates were incubated for three days in a 37° C. incubator.
Cell viability was read out using ATPlite from Perkin Elmer. Plates were removed from the incubator and brought to room temperature prior to use. Lyophilized powder was resuspended in lysis buffer and diluted 1:2 with DI water. 25 μL of this solution was added to each well using the Biotek liquid handler. Plates were sealed with adherent aluminum seals prior to vortexing and spinning down at 1000 g for 1 minute. Plates were incubated for 15 minutes at room temperature before signal was read on an Envision Plate Reader.

c-Myc/Max/Ebox DNA [1] = target: T1, c-Myc/Max/Ebox DNA (Homo sapiens, UniProt P01106); assay: c-Myc/Max/Ebox DNA AlphaScreen assay; assay type: binding; parameters: An exemplary assay uses full-length human c-Myc and Max proteins; his6 (cleaved yes); made in house
T1 sequence (P01106 16-454): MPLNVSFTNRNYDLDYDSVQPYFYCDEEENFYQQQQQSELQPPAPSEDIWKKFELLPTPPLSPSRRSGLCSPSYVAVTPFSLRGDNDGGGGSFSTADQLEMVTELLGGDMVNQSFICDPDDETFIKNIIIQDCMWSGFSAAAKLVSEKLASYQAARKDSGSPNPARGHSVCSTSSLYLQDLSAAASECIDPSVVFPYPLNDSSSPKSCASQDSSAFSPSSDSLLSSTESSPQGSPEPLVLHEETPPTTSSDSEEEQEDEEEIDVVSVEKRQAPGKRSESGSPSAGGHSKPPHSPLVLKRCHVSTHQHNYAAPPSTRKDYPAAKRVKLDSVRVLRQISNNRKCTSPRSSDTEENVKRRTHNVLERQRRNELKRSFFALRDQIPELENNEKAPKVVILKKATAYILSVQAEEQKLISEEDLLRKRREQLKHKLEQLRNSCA
Outline: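 Proximity read-out of Myc–Max–DNA complex formation in 50 mM HEPES pH 8.0 with 500 μM DTT. Compounds contact tag-free c-Myc (25 nM), Ebox oligo (10 nM) and acceptor beads first. His6-Max (1.25 nM) with donor beads follows, then 2 h incubation in low light with DMSO ≤2% v/v.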

c-Myc/Max/Ebox DNA [2] = target: T1, c-Myc/Max/Ebox DNA; assay: Gelshift assay, c-Myc/Max/Ebox DNA complex formation; assay type: binding
Method: FIG. 5 describes validation of Compound 63 activity using an orthogonal biochemical assay. […] Decreasing amounts of 63 was added to purified c-Myc, Max and biotinylated Ebox DNA. Biotinylated Ebox DNA complexed with protein (either c-Myc/Max or Max/Max) or free (bottom band) was assayed using a 6% retardation gel, transferred to a membrane and detected using straptavidin-HRP. […]
(§2) AlphaScreen hits can be validated using orthogonal biochemical assays such as a gelshift assay (also called an electrophoretic mobility shift assay) with purified components or cellular lysates. FIG. 5 (left) illustrates how the AlphaScreen hit 63 was validated using a gelshift assay with purified c-Myc, Max and Ebox DNA. […] Compounds and analogs were then examined for potency and selectivity against structurally similar transcription factor:DNA complexes, such as Max/Max/Ebox DNA and MITF/MITF/Ebox DNA. Data in FIG. 9 show how analogs can be tested for potency against structurally similar transcription factors and how medicinal chemistry optimization can drive potency and selectivity against different transcription factor:DNA complexes. […] The selectivity among structurally similar transcription factors can also provide insights into compound mechanism of action. […] Cellular assays can compliment the biochemical analyses to measure the cellular potency of compounds to induce cellular phenotypes expected as a result of loss of transcription factor function. This includes gene expression analysis, chromatin immunoprecipitation (ChIP) analysis, cellular proliferation analysis and cell state analysis. Gene expression analysis can be performed using qRT-PCR, Nanostring technology, microarray technology, or RNA-seq technology to study transcript changes following treatment with compound. ChIP analysis can be performed on the factor of interest to study if compound treatment alters its genomic occupancy. Cellular proliferation and cell state analysis can indicate if the compound alters cell cycle progression or cellular identity. Thus, the approach using biochemical and cellular assays with large chemical libraries or focused libraries of hits identified in high throughput screens can serve as a platform to develop inhibitors of transcription factor function.

c-Myc = target: T2, c-Myc (Homo sapiens, UniProt P01106); assay: c-Myc chromatin immunoprecipitation assay in H2171 cells; assay type: cell-based; settings: 100 μM, 4 hours
T2 construct: c-Myc genomic occupancy in H2171 cells treated with DMSO, Compound 63 (100 μM) or CC34301 (100 μM); endogenous in cells; host or cells: H2171
T2 sequence (P01106 whole entry): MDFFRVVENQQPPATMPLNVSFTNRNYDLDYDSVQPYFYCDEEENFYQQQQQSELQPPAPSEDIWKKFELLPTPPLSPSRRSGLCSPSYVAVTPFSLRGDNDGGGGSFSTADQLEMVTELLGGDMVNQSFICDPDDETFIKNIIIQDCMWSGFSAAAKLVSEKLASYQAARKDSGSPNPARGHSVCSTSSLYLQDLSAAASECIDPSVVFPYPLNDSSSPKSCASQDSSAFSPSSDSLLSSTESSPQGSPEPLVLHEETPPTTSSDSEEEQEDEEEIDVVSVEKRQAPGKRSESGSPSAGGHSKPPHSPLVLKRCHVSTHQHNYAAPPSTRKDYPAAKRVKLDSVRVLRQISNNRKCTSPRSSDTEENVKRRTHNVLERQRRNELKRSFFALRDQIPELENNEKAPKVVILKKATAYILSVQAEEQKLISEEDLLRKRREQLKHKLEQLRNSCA
Method: FIG. 6 depicts a c-Myc chromatin immunoprecipitation assay to investigate c-Myc genomic occupancy in H2171 cells treated with DMSO, Compound 63 (100 μM) or CC34301 (100 μM) for 4 hours. Standard chromatin immunoprecipitation procedures were followed using an antibody specific to c-Myc (Santa Cruz, catalogue number sc-764). Quantitative PCR analysis was performed on four c-Myc binding sites (Npm1, Mat2a, Hnrnpa2b1, and Rp123a) and one non-binding site (Neg region) and normalized to a background region to determine the fold enrichment over background.

[3] = test system: HL-60 promyelocytic leukemia cells; assay: HL-60 differentiation (qRT-PCR, FACS); assay type: cell-based, human; settings: HL-60 cells
Method: FIG. 7 depicts the assessment of on-target activity versus general toxicity. HL-60 promyelocytic leukemia cells express high levels of c-Myc to maintain a proliferative and undifferentiated cell state. Loss of c-Myc function results in loss of cellular proliferation and induction of cellular differentiation. HL-60 cells were treated with DMSO, 64 (12.5 μM or 25 μM), or 151 (25 μM) for four days.

MITF/MITF/Ebox DNA = target: T3, MITF/MITF/Ebox DNA (Homo sapiens, UniProt O75030); assay: Gelshift assay, MITF/MITF/Ebox DNA complex formation; assay type: binding; settings: relative to DMSO at 2.5 µM (FIG. 9)
T3 sequence (O75030 1-526): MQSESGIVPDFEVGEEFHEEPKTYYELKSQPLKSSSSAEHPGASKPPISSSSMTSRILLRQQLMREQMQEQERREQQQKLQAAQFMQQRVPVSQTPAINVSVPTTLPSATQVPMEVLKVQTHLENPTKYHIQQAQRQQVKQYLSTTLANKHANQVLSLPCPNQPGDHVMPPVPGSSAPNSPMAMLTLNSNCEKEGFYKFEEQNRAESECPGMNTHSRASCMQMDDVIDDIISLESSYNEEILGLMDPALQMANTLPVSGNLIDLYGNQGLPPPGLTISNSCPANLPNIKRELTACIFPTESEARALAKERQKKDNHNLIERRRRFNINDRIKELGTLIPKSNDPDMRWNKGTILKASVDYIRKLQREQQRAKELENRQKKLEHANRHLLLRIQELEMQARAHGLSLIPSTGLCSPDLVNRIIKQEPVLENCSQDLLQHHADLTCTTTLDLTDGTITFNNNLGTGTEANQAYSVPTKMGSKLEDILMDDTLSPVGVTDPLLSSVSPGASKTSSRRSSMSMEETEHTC
Method: Compounds tested at 2.5 μM for their inhibitory activity against c-Myc/Max/Ebox DNA, Max/Max/Ebox DNA and MITF/MITF/Ebox DNA complex formation using gelshift assays.
as §2

[4] = class symbols, NA: not active under assay conditions, read-out: Myc/Max IC50
[5] = c-Myc/Max/Ebox DNA AlphaScreen, NA: inactive under assay conditions, read-out: Biochemical IC50

SMILES | EC50 (Jurkat cells) [µM] | IC50 (c-Myc/Max/Ebox DNA [1]; [4]) [µM] | also measured
Cc1ccc(C)n1-c1ccccc1C(=O)O [Compound 1] | ≥ 100 | 10 to 100 | EC50 (H2171 cells): 93.5 µM; EC50 (MM1S cells): 132 µM
Cc1ccc(C)n1-c1ccccc1C(=O)O [Compound 63, 2-(2,5-dimethylpyrrolyl)benzoic acid] | – | – | EC50 (H2171 cells; Homo sapiens, NCI-H2171, 72 h): 96.9 µM; EC50 (MM1S cells): 322 µM; selectivity c-Myc/Max versus Max/Max (c-Myc/Max/Ebox DNA [2]; at tested doses (FIG. 5)): selectivity towards c-Myc/Max; c-Myc/Max/Ebox DNA complex formation (c-Myc/Max/Ebox DNA [2]; decreasing amounts of compound (FIG. 5)): reduced c-Myc/Max/Ebox DNA complex formation in a dose-dependent manner; also recorded: inhibits c-Myc/Max/Ebox DNA complex formation (top band) in a dose dependent manner; Max genomic occupancy (c-Myc): largely unchanged; c-Myc protein levels (c-Myc): unchanged; c-Myc occupancy at binding sites (Npm1, Mat2a, Hnrnpa2b1, Rp123a) (c-Myc; compared to DMSO or CC34301): reduced c-Myc occupancy; IC50 (c-Myc/Max/Ebox DNA [1]; [5]): 24.2 µM
CC(=O)OCOC(=O)c1ccccc1-n1c(C)ccc1C [Compound 64] | 10 to 100 | ≥ 100 | cellular activity in cellular proliferation assay (H2171 cells; H2171, relative to free acid Compound 63 (FIG. 3)): increased cellular activity; EC50 (H2171 cells; Homo sapiens, NCI-H2171, 72 h): 29.9 µM; EC50 (MM1S cells; Homo sapiens, MM1.S, 72 h): 52.3 µM; cellular activity/potency in cellular proliferation assay (MM1S cells; MM1.S, prodrug relative to free acid (FIG. 3, FIG. 4)): increased cellular activity; expression of differentiation markers (qRT-PCR) ([3]; 12.5 μM or 25 μM, four days): induces the expression of three differentiation markers (CD14, CD11c, and CCL4); differentiation marker CD11c (FACS) ([3]; 4 days): express the differentiation marker CD11c; IC50 (c-Myc/Max/Ebox DNA [1]; [5]): 155 µM
Cc1ccc(C)n1-c1cc(C(=O)N/N=C/c2ccc(O)c(O)c2O)ccc1C(=O)O [Compound 79] | – | – | c-Myc/Max/Ebox DNA complex formation (c-Myc/Max/Ebox DNA [2]; relative to DMSO at 2.5 mM (FIG. 9)): disrupted; MITF/MITF/Ebox DNA complex formation (MITF/MITF/Ebox DNA): disrupted; IC50 (c-Myc/Max/Ebox DNA [1]; [5]): 0.531 µM
Cc1ncc(CO)c(/C=N/NC(=O)c2ccc(C(=O)O)c(-n3c(C)ccc3C)c2)c1O [Compound 80] | ≥ 100 | 1 to 10 | EC50 (H2171 cells; Homo sapiens, NCI-H2171, 72 h): 400 µM
Cc1ccc(C)n1-c1cc(C(=O)N/N=C/c2ccc(-c3nnn[nH]3)cc2)ccc1C(=O)O [Compound 92] | – | – | EC50 (MM1S cells; Homo sapiens, MM1.S, 72 h): 731 µM; MITF/MITF/Ebox DNA complex formation (MITF/MITF/Ebox DNA): most potent of the compounds tested; IC50 (c-Myc/Max/Ebox DNA [1]; [5]): 1.66 µM
Cc1ccc(C)n1-c1ccccc1-c1nnn[nH]1 [Compound 162] | ≥ 100 | ≥ 100 | EC50 (H2171 cells; Homo sapiens, NCI-H2171, 72 h): 24.2 µM; EC50 (MM1S cells; Homo sapiens, MM1.S, 72 h): 66 µM; IC50 (c-Myc/Max/Ebox DNA [1]; [5]): 151 µM
Cc1ccc(C)n1-c1cc(C(=O)N2C[C@H](c3ccccc3)[C@@H](O)C2)ccc1C(=O)O [Compound 217] | ≥ 100 | 10 to 100 | –
COc1ccc(C(=O)N2CCN(C(=O)c3ccc(C(=O)O)c(-n4c(C)ccc4C)c3)CC2)cc1 [Compound 218] | 10 to 100 | 10 to 100 | –
Cc1ccc(C)n1-c1cc(-c2nnc(-c3ccc(OCc4ccccc4)c(OCc4ccccc4)c3OCc3ccccc3)o2)ccc1C(=O)O [Compound 219] | < 10 | 1 to 10 | –
COc1cccc(C(=O)N2CCN(C(=O)c3ccc(C(=O)O)c(-n4c(C)ccc4C)c3)CC2)c1 [Compound 220] | ≥ 100 | 10 to 100 | –
Cc1ccc(C)n1-c1cc(C(=O)N2CCCC(c3ccc(C(=O)O)cc3)C2)ccc1C(=O)NS(C)(=O)=O (stereo not shown) [Compound 221] | ≥ 100 | 10 to 100 | –
Cc1ccc(C)n1-c1cc(-c2nnc(-c3cccc(C(=O)NS(C)(=O)=O)c3)o2)ccc1C(=O)O [Compound 222] | 10 to 100 | 10 to 100 | –
Cc1ccc(C)n1-c1cc(C(=O)O)ccc1C(=O)NS(C)(=O)=O [Compound 223] | ≥ 100 | 10 to 100 | –
Cc1ccc(C)n1-c1cc(-c2nnc(-c3ccc(O)c(O)c3O)o2)ccc1C(=O)O [Compound 224] | < 10 | < 1 | –
COc1cccc([C@H]2CN(C(=O)c3ccc(C(=O)O)c(-n4c(C)ccc4C)c3)C[C@@H]2O)c1 [Compound 225] | 10 to 100 | ≥ 100 | –
Cc1ccc(C)n1-c1cc(C(=O)N2CCN(C(=O)c3cncc(F)c3)CC2)ccc1C(=O)O [Compound 226] | ≥ 100 | 10 to 100 | –
